Values quoted from earlier work, collected in patent US20070197592A1, “Use of Paliperidone for the Treatment of Substance Abuse” (priority 2005, published 2007).

Tests used:
golden hamster = settings: cited from earlier work
animals = settings: cited from earlier work; for water or food consumption: at the same time as the inhibition of alcohol consumption

SMILES | alcohol drinking (golden hamster) | water or food intake (golden hamster) | water or food consumption (animals) | alcohol consumption (animals)
O=c1c(-c2ccc(O)cc2)coc2cc(O[C@@H]3O[C@H](CO)[C@@H](O)[C@H](O)[C@H]3O)ccc12 [Daidzin] | decreases alcohol drinking | without producing a decrease in water or food intake |  | 
C=CCN1CC[C@]23c4c5ccc(O)c4O[C@H]2C(=O)CC[C@@]3(O)[C@H]1C5 [naloxone] |  |  | impaired water or food consumption | inhibit alcohol consumption
O=C1CC[C@@]2(O)[C@H]3Cc4ccc(O)c5c4[C@@]2(CCN3CC2CC2)[C@H]1O5 [naltrexone] |  |  | impaired water or food consumption | inhibit alcohol consumption
CN[C@H]1CC[C@@H](c2ccc(Cl)c(Cl)c2)c2ccccc21 [sertraline] |  |  | impaired water or food consumption | inhibit alcohol consumption
